Holding throughout (type): cell-based, human
Experiment [1] has as its system CLL cells. Description: cAMP assay (RIA) in CLL cells. Particulars: two hours; used alone and combined with forskolin. As to the method:
One million cells in 1 mL were treated for two hours with or without drugs. 0.8 mL of cells were pelleted by spinning at 4,000 rpm (RCF=1,310) in microcentrifuge tube. After discarding 0.7 mL, 400 uL of ethanol was added, vortexed and left on ice for five minutes. Particulate cell debris was removed by centrifugation at 14,000 rpm (RCF=16,000). The supernatant was stored at −20° C. until the day of assay, at which time it was dried in a Speedivac (Savant, Farmingdale, N.Y.) to a volume of 50 uL. After ten-fold dilution in 10 mMol/L Tris pH 8.0, 1 mMol/L EDTA, the cAMP sample was analyzed for cAMP concentration using a cAMP RIA kit (NEN, Boston, Mass.) according to the manufacturer's instructions using the nonacetylated protocol.
In this example, it was determined what role type 1 and type 4 PDE activity might play in the catabolism of cyclic nucleotides in CLL cells. cAMP levels were measured after culturing leukemic cells with varying concentrations of PDE-isoform specific inhibitors, either alone or in conjunction with an activator of adenylate cyclase, the diterpene forskolin. Specifically, one million freshly isolated cells were incubated with the indicated drugs for two hours prior to analysis of cAMP in cell lysates using a radioimmunoassay. The results are shown in FIG. 4 and the data are the mean of three individually assayed culture wells.
(Cyclic AMP is a second messenger, typically raised through Gs and lowered through Gi signalling.)

Experiment [2] has as its system CLL cells. Nature of the experiment: Hoechst 33342 apoptosis assay, CLL cells. Particulars: for percentage of apoptotic cells: 10 uMol/L rolipram. As to the method:
(§1) Hoechst 33342 was dissolved in water and frozen at 33 mg/mL at −20° C. One million cells/well were incubated in duplicate or triplicate in 48 well tissue culture plates (Costar, Cambridge, Mass.) with or without drug treatment for […] in 1 mL of culture media. Cells were transferred to 12×75 mm polystyrene Falcon® 2054 FACS tubes (Becton Dickinson Labware, Lincoln Park, N.J.) and incubated for ten minutes at 37° C. with Hoechst 33342 at a final concentration of […]. 23 Cells were stored on ice until analysis on a FACS Vantage flow cytometer (Becton Dickinson, San Jose, Calif.). Hoechst 33342 dye fluorescence was excited with a UV laser and detected using a 450 bandpass filter; Data was analyzed using Cellquest software (Becton Dickinson, San Jose, Calif.).
As a more quantitative analysis of CLL apoptosis, we utilized a flow cytometry method in which apoptotic cells are distinguished both by their reduced size (FSC) and their increased uptake of the lipophilic UV fluorescent dye Hoechst 33342 (FL-4) when the intact, heterogeneous cell population is incubated with a low concentration of the dye (0.25 ug/mL) for 10 minutes at 37° C. Specifically, cells were cultured for 72 hours in media (1), 1uMol/L rolipram (2), 40 uMol/L forskolin (3) or a combination of the two drugs (FIG. 6). The abcissa reflects forward light scatter and the ordinate Hoechst 33342 fluorescence. Apoptotic cells are characterized by reduced forward light scatter and increased Hoechst 33342 fluorescence. Previous reports of cAMP induced lymphoid apoptosis have noted that this form of programmed cell death may take 48 to 72 hours to develop maximally. […] CLL cells were cultured for 72 hours in one mL of media with the indicated concentration of rolipram with (black bars) or without (stippled bars) the addition of 40 uMol/L forskolin.

For experiment [3], the system named is magnetic bead purified CD19+B cells. Nature of the experiment: Hoechst 33342 apoptosis assay, CD19+ B cells. The method, then: as §1
This example describes the effect of PDE4 inhibition on normal B and T cells. […] Specifically, one million WMC were cultured with the indicated concentration of rolipram with or without the addition of 40 uMol/L forskolin for 72 hours in the presence of 2 units/mL IL-2. Apoptosis was determined by Hoechst 33342 flow cytometry. […] In contrast, magnetic bead purified CD19+B cells were sensitive to rolipram, although the increment in apoptosis observed was superimposed on a high basal apoptosis rate that has previously been reported in cultured human B cells. Given that crosslinking of cell surface immunoglobulin on resting B cells has been reported to reduce basal and forskolin-induced apoptosis in culture, we also stimulated CD19+ cells with a polyclonal Fab′2 anti-IgM/IgG reagent 30 minutes prior to the addition of the phosphodiesterase inhibitor.

As to `COc1ccc(C2CNC(=O)C2)cc1OC1CCCC1` (racemic) [rolipram, 4-(3-cyclopentyloxy-4-methoxyphenyl)-2-pyrrolidone], the “CLL cAMP levels” value with CLL cells [1] was “augmented CLL cAMP levels”. In addition, the “absolute increase in apoptotic cells” value in the experiment on CLL cells [2] (10 uMol/L, four relatively rolipram-resistant patient samples (Pt #'s 11-14)) was “less than 33%”. Moreover, the CLL cell apoptosis entry in the experiment on CLL cells [2] (72 hour culture, rolipram dose range with or without 40 uMol/L forskolin) was “dose dependent increase in CLL cell apoptosis”. Also, the “apoptosis of anti-Ig stimulated CLL cells” value with CLL cells [2] (CLL cells derived from two patients) is listed as “failed to protect these cells from rolipram-induced apoptosis”. For the same compound, the “percentage of apoptotic cells” value in the experiment on CLL cells [2] (Pt. 1, Rai III, basal 47, 40 uMol/L forskolin or 100 uMol/L dbcAMP, three days) worked out at 80%; in the experiment on CLL cells [2] (Pt. 2, Rai IV, Drug Res. Ch, Cy, basal 18 ± 2, 40 uMol/L forskolin or 100 uMol/L dbcAMP, three days), 79%; in the experiment on CLL cells [2] (Pt. 3, Rai IV, Drug Res. Ch, CH, basal 38, 40 uMol/L forskolin or 100 uMol/L dbcAMP, three days), 77 ± 1%; in the experiment with CLL cells [2] (Pt. 4, Rai I, basal 31 ± 2, 40 uMol/L forskolin or 100 uMol/L dbcAMP, three days) it was 76 ± 2%; with CLL cells [2] (Pt. 5, Rai IV, basal 18, 40 uMol/L forskolin or 100 uMol/L dbcAMP, three days), 57 ± 2%; in the experiment on CLL cells [2] (Pt. 6, Rai IV, Drug Res. Ch, basal 17 ± 4, 40 uMol/L forskolin or 100 uMol/L dbcAMP, three days), 54 ± 1%. The “percentage of apoptotic cells” value is on record as 47 ± 2% in the experiment with CLL cells [2] (Pt. 7, Rai II, Drug Res. Ch, basal 13 ± 2, 40 uMol/L forskolin or 100 uMol/L dbcAMP, three days); 46% in the experiment with CLL cells [2] (Pt. 8, Rai 0, basal 5, 40 uMol/L forskolin, three days); 44 ± 3% with CLL cells [2] (Pt. 9, Rai IV, Drug Res. Ch, Cy, Fl, basal 4 ± 0, 40 uMol/L forskolin or 100 uMol/L dbcAMP, three days); 44 ± 0% with CLL cells [2] (Pt. 10, Rai I, basal 11, 40 uMol/L forskolin or 100 uMol/L dbcAMP, three days); 40 ± 0% in the experiment on CLL cells [2] (Pt. 11, Rai 0, basal 24 ± 4, 40 uMol/L forskolin or 100 uMol/L dbcAMP, three days); 38 ± 1% with CLL cells [2] (Pt. 12, Rai IV, Drug Res. Ch, Fl, 2C, basal 0 ± 4, 40 uMol/L forskolin or 100 uMol/L dbcAMP, three days). Further, the “percentage of apoptotic cells” value was 34 ± 0% in the experiment on CLL cells [2] (Pt. 13, Rai 0, basal 2 ± 0, 40 uMol/L forskolin or 100 uMol/L dbcAMP, three days) and 14 ± 0% in the experiment on CLL cells [2] (Pt. 14 (significant population of cells with prolymphocyte morphology), Rai I, basal 13 ± 0, 40 uMol/L forskolin or 100 uMol/L dbcAMP, three days). For the same compound, in the experiment on CLL cells [2] (rolipram 10 uMol/L, doxorubicin 0.03 or 0.1 uMol/L, three days), the “effect on doxorubicin-induced apoptosis” value is on record as “augments doxorubicin-induced apoptosis”. Besides, the “effect on fludarabine-induced apoptosis” value in the experiment on CLL cells [2] (rolipram 10 uMol/L, fludarabine 0.3-3.0 uMol/L, three days) is “augments fludarabine-induced apoptosis”. Besides, in the experiment with CLL cells [2] (rolipram 10 uMol/L, three days), the “effect on chlorambucil-induced apoptosis” value was “augments chlorambucil-induced apoptosis”. Besides, the “apoptosis of anti-Ig stimulated CD19+ B cells” value in experiment [3] (polyclonal Fab'2 anti-IgM/IgG 30 minutes prior to inhibitor) was “markedly reduced both basal apoptosis and the sensitivity of the B cells to rolipram”. Moreover, the “apoptosis of CD19+ B cells” value in experiment [3] (unstimulated, high basal apoptosis rate) is reported as “sensitive”.
